Results taken from patent publication US9758527B2, “Cyclohexene derivative, preparation method therefor, and pharmaceutical composition for preventing or treating metabolic diseases, containing same as active ingredient” (HYUNDAI PHARM CO., LTD., priority 2014, dated 2017).
Where two headings read alike, the source gives them in different places.

Target: T1, G protein-coupled receptor 119 (GPR-119) (Mesocricetus auratus, UniProt A0A1U8CD06)
T1 construct: hamster-derived β-cells containing G protein-coupled receptor 119 (GPR-119), HIT-T15 cells; host or cells: HIT-T15 (hamster pancreatic β-cells)
T1 sequence (A0A1U8CD06 1-334): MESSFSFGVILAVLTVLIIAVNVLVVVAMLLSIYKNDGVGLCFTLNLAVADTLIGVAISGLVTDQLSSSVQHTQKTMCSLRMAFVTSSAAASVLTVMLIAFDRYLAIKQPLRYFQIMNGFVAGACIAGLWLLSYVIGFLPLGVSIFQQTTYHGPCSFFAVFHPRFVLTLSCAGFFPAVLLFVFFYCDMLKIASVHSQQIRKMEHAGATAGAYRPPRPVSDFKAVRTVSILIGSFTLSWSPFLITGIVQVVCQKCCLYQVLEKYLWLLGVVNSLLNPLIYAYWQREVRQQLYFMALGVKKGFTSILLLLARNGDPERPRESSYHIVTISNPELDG
Assay: Evaluation of cAMP activity in HIT-T15 cells (HTRF cAMP dynamic kit)
Type: cell-based, hamster
Details: cAMP activation
Protocol: To check whether the cyclohexene derivatives according to the present invention activate cyclic adenosine monophosphate (cAMP), experiments were carried out, as follows.
The HIT-T15 cells were plated on a 96-well plate at 60,000 cells per well. On the next day of plating, the cells were treated with a varying concentration of each of the example compounds according to the present invention, and incubated at 37° C. for an hour. In this case, each of the treated compounds was used at six concentrations, ranging from […], to treat the cells.
The cyclic adenosine monophosphate (cAMP) activity was measured according to the manufacturer's instruction using a cAMP dynamic kit commercially available from Cis Bio Inc. (Bedford, Mass.). The cells were lysed, and a level of cAMP was determined by a competitive immunoassay using D2-labeled cAMP and a cryptate-labeled anti-cAMP antibody. Fluorescence was read in Flex Station (Molecular Devices). […] Unlabeled cAMP in the cell lysate competed with the D2-labeled cAMP against the cryptate-labeled antibody. Since a decrease in the measured intensity of the FRET signals represents a level of cAMP in the cells, the cAMP activities of the compounds are calculated as a change in FRET signals by adjusting an amount of dimethyl sulfoxide (DMSO).

[1] = 1 h at 37° C., six concentrations, read-out: EC50

Structure (SMILES)	EC50 [1]	EC50 (read-out: EC50 value)
CCc1cnc(N2CCC(COc3ccc(C4=CCC(C(=O)N5CC[C@@H](O)C5)CC4)cc3)CC2)nc1 (stereo partly drawn) [Example 16, (4-(4-((1-(5-ethylpyrimidin-2-yl)piperidin-4-yl)methoxy)phenyl)cyclohex-3-enyl)((R)-3-hydroxypyrrolidin-1-yl)methanone]	13 nM	≤ 50 nM
CC(C)c1noc(N2CCC(COc3ccc(C4=CCC(C(=O)NC[C@@H](O)CO)CC4)cc3)CC2)n1 (stereo partly drawn) [Example 17, N-((R)-2,3-dihydroxypropyl)-4-(4-((1-(3-isopropyl-1,2,4-oxadiazol-5-yl)piperidin-4-yl)methoxy)phenyl)cyclohex-3-enecarboxamide]	85 nM	–
CC(C)c1noc(N2CCC(COc3ccc(C4=CCC(C(=O)NC[C@H](O)CO)CC4)cc3)CC2)n1 (stereo partly drawn) [Example 18, N-((S)-2,3-dihydroxypropyl)-4-(4-((1-(3-isopropyl-1,2,4-oxadiazol-5-yl)piperidin-4-yl)methoxy)phenyl)cyclohex-3-enecarboxamide]	170 nM	–
CC(C)c1noc(N2CCC(COc3ccc(C4=CCC(C(=O)N[C@@H](C)CO)CC4)cc3)CC2)n1 (stereo partly drawn) [Example 19, N-((S)-1-hydroxypropan-2-yl)-4-(4-((1-(3-isopropyl-1,2,4-oxadiazol-5-yl)piperidin-4-yl)methoxy)phenyl)cyclohex-3-enecarboxamide]	110 nM	–
CC(C)c1noc(N2CCC(COc3ccc(C4=CCC(C(=O)N[C@H](C)CO)CC4)cc3)CC2)n1 (stereo partly drawn) [Example 20, N-((R)-1-hydroxypropan-2-yl)-4-(4-((1-(3-isopropyl-1,2,4-oxadiazol-5-yl)piperidin-4-yl)methoxy)phenyl)cyclohex-3-enecarboxamide]	90 nM	–
CCc1cnc(N2CCC(COc3ccc(C4=CCC(C(=O)N(C)CCO)CC4)cc3)CC2)nc1 (stereo not drawn) [Example 21, 4-(4-((1-(5-ethylpyrimidin-2-yl)piperidin-4-yl)methoxy)phenyl)-N-(2-hydroxyethyl)-N-methylcyclohex-3-enecarboxamide]	16 nM	≤ 50 nM
CC(C)c1noc(N2CCC(COc3ccc(C4=CCC(C(=O)NCC(C)(C)CO)CC4)cc3)CC2)n1 (stereo not drawn) [Example 22, N-(3-hydroxy-2,2-dimethylpropyl)-4-(4-((1-(3-isopropyl-1,2,4-oxadiazol-5-yl)piperidin-4-yl)methoxy)phenyl)cyclohex-3-enecarboxamide]	41 nM	≤ 50 nM
CC(C)c1noc(N2CCC(COc3ccc(C4=CCC(C(=O)NC(CO)CO)CC4)cc3)CC2)n1 (stereo not drawn) [Example 23, N-(1,3-dihydroxypropan-2-yl)-4-(4-((1-(3-isopropyl-1,2,4-oxadiazol-5-yl)piperidin-4-yl)methoxy)phenyl)cyclohex-3-enecarboxamide]	160 nM	–
C[C@@H](CO)NC(=O)C1CC=C(c2ccc(OCC3CCN(C(=O)OC(C)(C)C)CC3)nc2)CC1 (stereo partly drawn) [Example 24, tert-butyl 4-((5-(4-((S)-1-hydroxypropan-2-ylcarbamoyl)cyclohex-1-enyl)pyridin-2-yloxy)methyl)piperidine-1-carboxylate]	260 nM	–
C[C@H](CO)NC(=O)C1CC=C(c2ccc(OCC3CCN(C(=O)OC(C)(C)C)CC3)nc2)CC1 (stereo partly drawn) [Example 25, tert-butyl 4-((5-(4-((R)-1-hydroxypropan-2-ylcarbamoyl)cyclohex-1-enyl)pyridin-2-yloxy)methyl)piperidine-1-carboxylate]	210 nM	–
C[C@H](O)CNC(=O)C1CC=C(c2ccc(OCC3CCN(C(=O)OC(C)(C)C)CC3)nc2)CC1 (stereo partly drawn) [Example 26, tert-butyl 4-((5-(4-((S)-2-hydroxypropylcarbamoyl)cyclohex-1-enyl)pyridin-2-yloxy)methyl)piperidine-1-carboxylate]	250 nM	–
C[C@@H](O)CNC(=O)C1CC=C(c2ccc(OCC3CCN(C(=O)OC(C)(C)C)CC3)nc2)CC1 (stereo partly drawn) [Example 27, tert-butyl 4-((5-(4-((R)-2-hydroxypropylcarbamoyl)cyclohex-1-enyl)pyridin-2-yloxy)methyl)piperidine-1-carboxylate]	310 nM	–
CC(C)c1noc(N2CCC(COc3ccc(C4=CCC(C(=O)NC[C@@H](C)O)CC4)cc3)CC2)n1 (stereo partly drawn) [Example 28, N-((R)-2-hydroxypropyl)-4-(4-((1-(3-isopropyl-1,2,4-oxadiazol-5-yl)piperidin-4-yl)methoxy)phenyl)cyclohex-3-enecarboxamide]	110 nM	–
CC(C)c1noc(N2CCC(COc3ccc(C4=CCC(C(=O)NC[C@H](C)O)CC4)cc3)CC2)n1 (stereo partly drawn) [Example 29, N-((S)-2-hydroxypropyl)-4-(4-((1-(3-isopropyl-1,2,4-oxadiazol-5-yl)piperidin-4-yl)methoxy)phenyl)cyclohex-3-enecarboxamide]	95 nM	–
CCc1cnc(N2CCC(COc3ccc(C4=CCC(C(=O)NC[C@@H](C)O)CC4)cc3)CC2)nc1 (stereo partly drawn) [Example 30, 4-(4-((1-(5-ethylpyrimidin-2-yl)piperidin-4-yl)methoxy)phenyl)-N-((R)-2-hydroxypropyl)cyclohex-3-enecarboxamide]	105 nM	–
CC(C)c1noc(N2CCC(COc3ccc(C4=CCC(C(=O)NCCO)CC4)cc3)CC2)n1 (stereo not drawn) [Example 31, N-(2-hydroxyethyl)-4-(4-((1-(3-isopropyl-1,2,4-oxadiazol-5-yl)piperidin-4-yl)methoxy)phenyl)cyclohex-3-enecarboxamide]	260 nM	–
CC(C)(C)OC(=O)N1CCC(COc2ccc(C3=CCC(C(=O)NC[C@@H](O)CO)CC3)cn2)CC1 (stereo partly drawn) [Example 32, tert-butyl 4-((5-(4-((R)-2,3-dihydroxypropylcarbamoyl)cyclohex-1-enyl)pyridin-2-yloxy)methyl)piperidine-1-carboxylate]	650 nM	–
CC(C)(C)OC(=O)N1CCC(COc2ccc(C3=CCC(C(=O)NC[C@H](O)CO)CC3)cn2)CC1 (stereo partly drawn) [Example 33, tert-butyl 4-((5-(4-((S)-2,3-dihydroxypropylcarbamoyl)cyclohex-1-enyl)pyridin-2-yloxy)methyl)piperidine-1-carboxylate]	600 nM	–
CC(C)c1noc(N2CCC(COc3ccc(C4=CCC(C(=O)N(C)CCO)CC4)cc3)CC2)n1 (stereo not drawn) [Example 34, N-(2-hydroxyethyl)-4-(4-((1-(3-isopropyl-1,2,4-oxadiazol-5-yl)piperidin-4-yl)methoxy)phenyl)-N-methylcyclohex-3-enecarboxamide]	21 nM	≤ 50 nM
CCN(CCO)C(=O)C1CC=C(c2ccc(OCC3CCN(c4nc(C(C)C)no4)CC3)cc2)CC1 (stereo not drawn) [Example 35, N-ethyl-N-(2-hydroxyethyl)-4-(4-((1-(3-isopropyl-1,2,4-oxadiazol-5-yl)piperidin-4-yl)methoxy)phenyl)cyclohex-3-enecarboxamide]	22 nM	≤ 50 nM
CC(C)c1noc(N2CCC(COc3ccc(C4=CCC(C(=O)N[C@H](C)CO)CC4)nc3)CC2)n1 (stereo partly drawn) [Example 36, N-((R)-1-hydroxypropan-2-yl)-4-(5-((1-(3-isopropyl-1,2,4-oxadiazol-5-yl)piperidin-4-yl)methoxy)pyridin-2-yl)cyclohex-3-enecarboxamide]	170 nM	–
CC(C)c1noc(N2CCC(COc3ccc(C4=CCC(C(=O)N[C@@H](C)CO)CC4)nc3)CC2)n1 (stereo partly drawn) [Example 37, N-((S)-1-hydroxypropan-2-yl)-4-(5-((1-(3-isopropyl-1,2,4-oxadiazol-5-yl)piperidin-4-yl)methoxy)pyridin-2-yl)cyclohex-3-enecarboxamide]	300 nM	–
